Tests used:
velvetleaf = assay: Test B pre/postemergence velvetleaf; format: in vivo, Abutilon theophrasti
Outline: (§1)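 Response is a visual 0-to-10 score relative to untreated plants, where 0 means no effect and 10 means complete control, taken twelve to sixteen days after application. Treatments went onto soil at planting and onto foliage of 1- to 4-leaf plants, using a surfactant-containing non-phytotoxic solvent.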

sugar beet = assay: Test B pre/postemergence sugar beet; format: in vivo, Beta vulgaris
Outline: as §1

wheat = assay: Test B pre/postemergence wheat; format: in vivo, Triticum aestivum
Outline: as §1

corn = assay: Test B pre/postemergence corn; format: in vivo, Zea mays
Outline: as §1

pigweed = assay: Test B pre/postemergence pigweed; format: in vivo, Amaranthus retroflexus
Outline: as §1

smallflower flatsedge = assay: Test B flood test smallflower flatsedge; format: in vivo, Cyperus difformis
Outline: (§2)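 Plants were grown to the 2-leaf stage before treatment with test chemical, then held in a greenhouse for twelve to sixteen days. Injury was visually rated against untreated controls on a 0–10 scale, where 0 is no effect and 10 is complete control.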

purple nutsedge = assay: Test B pre/postemergence purple nutsedge; format: in vivo, Cyperus rotundus
Outline: as §1

crabgrass = assay: Test B pre/postemergence crabgrass; format: in vivo, Digitaria sanguinalis
Outline: as §1

duck salad = assay: Test B flood test duck salad; format: in vivo, Heteranthera limosa; conditions: for Plant response rating, Ducksalad: scale 0 to 10, 0 is no effect, 10 is complete control; for Ducksalad plant response rating: scale of 0 to 10 where 0 is no effect and 10 is complete control
Outline: as §2

rice = assay: Test B flood test rice; format: in vivo, Oryza sativa
Outline: as §2

blackgrass = assay: Test B pre/postemergence blackgrass; format: in vivo, Alopecurus myosuroides
Outline: as §1

giant foxtail = assay: Test B pre/postemergence giant foxtail; format: in vivo, Setaria faberii
Outline: as §1

cocklebur = assay: Test B pre/postemergence cocklebur; format: in vivo, Xanthium strumarium
Outline: as §1

soybean = assay: Test B pre/postemergence soybean; format: in vivo, Glycine max
Outline: as §1

surinam grass = assay: Test B pre/postemergence surinam grass; format: in vivo, Brachiaria decumbens
Outline: as §1

bamyardgrass = assay: Test B flood test barnyardgrass; format: in vivo, Echinochloa crus-galli; conditions: for Plant response rating, Barnyardgrass: scale 0 to 10, 0 is no effect, 10 is complete control; for Barnyardgrass plant response rating: scale of 0 to 10 where 0 is no effect and 10 is complete control
Outline: as §2

wild oat = assay: Test B pre/postemergence wild oat; format: in vivo, Avena fatua
Outline: as §1

morningglory = assay: Test B pre/postemergence morningglory; format: in vivo, Ipomoea hederacea
Outline: as §1

rape = assay: Test B pre/postemergence rape; format: in vivo, Brassica napus
Outline: as §1

[1] = Postemergence, Rate 250 g/ha, scale 0 to 10, 0 is no effect, 10 is complete control
[2] = Postemergence, Rate 500 g/ha, scale of 0 to 10 where 0 is no effect and 10 is complete control
[3] = Preemergence, Rate 62 g/ha, scale 0 to 10 (0 no effect, 10 complete control)
[4] = Preemergence, Rate 125 g/ha, scale of 0 to 10 where 0 is no effect and 10 is complete control
[5] = Preemergence, Rate 250 g/ha, scale 0 to 10, 0 is no effect, 10 is complete control
[6] = Preemergence, Rate 500 g/ha, scale 0 to 10, 0 is no effect, 10 is complete control
[7] = Postemergence, Rate 125 g/ha, scale 0 to 10, 0 is no effect, 10 is complete control
[8] = Rate 62 g/ha, Postemergence, scale of 0 to 10 where 0 is no effect and 10 is complete control
[9] = Postemergence section (flood test species), Rate 500 g/ha, scale of 0 to 10 where 0 is no effect and 10 is complete control
[10] = flood test species, listed under Postemergence, Rate 250 g/ha, scale 0 to 10, 0 is no effect, 10 is complete control
[11] = Postemergence (flood test), Rate 125 g/ha
[12] = Postemergence section (flood test species), Rate 500 g/ha
[13] = Rate 62 g/ha, Postemergence (flood test species)
[14] = flood test species, listed under Postemergence, Rate 250 g/ha
[15] = Preemergence, Rate 250 g/ha, scale of 0 to 10 where 0 is no effect and 10 is complete control

CC(C)N(C(=O)n1oc(=O)n(CCBr)c1=O)c1ccccc1 [Compound 415]
Plant response rating, Velvetleaf (velvetleaf; [1]): 2
Velvetleaf plant response rating (velvetleaf; [2]): 2
Plant response rating, Velvetleaf (velvetleaf; [3]): 0
Plant response rating, Velvetleaf (velvetleaf; [4]): 2
Velvetleaf plant response rating (velvetleaf; [5]): 6
Velvetleaf plant response rating (velvetleaf; [6]): 7
Plant response rating, Sugarbeets (sugar beet; [1]): 0
Sugarbeets plant response rating (sugar beet; [2]): 0
Plant response rating, Sugarbeets (sugar beet; [3]): 0
Plant response rating, Sugarbeets (sugar beet; [4]): 0
Sugarbeets plant response rating (sugar beet; [5]): 6
Sugarbeets plant response rating (sugar beet; [6]): 8
Wheat plant response rating (wheat; [2]): 3
Plant response rating, Wheat (wheat; [3]): 0
Plant response rating, Wheat (wheat; [4]): 0
Wheat plant response rating (wheat; [5]): 2
Wheat plant response rating (wheat; [6]): 3
Plant response rating, Corn (corn; [7]): 0
Plant response rating, Corn (corn; [1]): 1
Corn plant response rating (corn; [2]): 2
Plant response rating, Corn (corn; [3]): 0
Plant response rating, Corn (corn; [4]): 2
Corn plant response rating (corn; [5]): 3
Corn plant response rating (corn; [6]): 4
Corn plant response rating (corn; [8]): 0
Plant response rating, Redroot pigweed (pigweed; [1]): 0
Redroot pigweed plant response rating (pigweed; [2]): 3
Plant response rating, Redroot pigweed (pigweed; [3]): 0
Plant response rating, Redroot pigweed (pigweed; [4]): 0
Redroot pigweed plant response rating (pigweed; [5]): 6
Redroot pigweed plant response rating (pigweed; [6]): 10
S. Flatsedge plant response rating (smallflower flatsedge; [9]): 3
Plant response rating, S. Flatsedge (smallflower flatsedge; [10]): 3
Plant response rating, Nutsedge (purple nutsedge; [1]): 0
Nutsedge plant response rating (purple nutsedge; [2]): 0
Plant response rating, Nutsedge (purple nutsedge; [3]): 0
Plant response rating, Nutsedge (purple nutsedge; [4]): 0
Nutsedge plant response rating (purple nutsedge; [5]): 0
Nutsedge plant response rating (purple nutsedge; [6]): 0
Plant response rating, Crabgrass (crabgrass; [7]): 1
Plant response rating, Crabgrass (crabgrass; [1]): 8
Crabgrass plant response rating (crabgrass; [2]): 9
Plant response rating, Crabgrass (crabgrass; [3]): 8
Plant response rating, Crabgrass (crabgrass; [4]): 8
Crabgrass plant response rating (crabgrass; [5]): 9
Crabgrass plant response rating (crabgrass; [6]): 10
Crabgrass plant response rating (crabgrass; [8]): 0
Plant response rating, Ducksalad (duck salad; [11]): 0
Ducksalad plant response rating (duck salad; [12]): 0
Ducksalad plant response rating (duck salad; [13]): 0
Plant response rating, Ducksalad (duck salad; [14]): 0
Rice plant response rating (rice; [9]): 0
Plant response rating, Rice (rice; [10]): 0
Plant response rating, Blackgrass (blackgrass; [7]): 3
Plant response rating, Blackgrass (blackgrass; [1]): 8
Blackgrass plant response rating (blackgrass; [2]): 9
Plant response rating, Blackgrass (blackgrass; [3]): 5
Plant response rating, Blackgrass (blackgrass; [4]): 5
Blackgrass plant response rating (blackgrass; [15]): 9
Blackgrass plant response rating (blackgrass; [6]): 9
Blackgrass plant response rating (blackgrass; [8]): 0
Plant response rating, Giant foxtail (giant foxtail; [7]): 8
Plant response rating, Giant foxtail (giant foxtail; [1]): 9
Giant foxtail plant response rating (giant foxtail; [2]): 9
Plant response rating, Giant foxtail (giant foxtail; [3]): 9
Plant response rating, Giant foxtail (giant foxtail; [4]): 10
Giant foxtail plant response rating (giant foxtail; [5]): 10
Giant foxtail plant response rating (giant foxtail; [6]): 10
Giant foxtail plant response rating (giant foxtail; [8]): 5
Plant response rating, Cocklebur (cocklebur; [7]): 0
Plant response rating, Cocklebur (cocklebur; [1]): 1
Cocklebur plant response rating (cocklebur; [2]): 4
Plant response rating, Cocklebur (cocklebur; [3]): 0
Plant response rating, Cocklebur (cocklebur; [4]): 0
Cocklebur plant response rating (cocklebur; [5]): 0
Cocklebur plant response rating (cocklebur; [6]): 0
Cocklebur plant response rating (cocklebur; [8]): 0
Plant response rating, Soybean (soybean; [1]): 4
Soybean plant response rating (soybean; [2]): 7
Plant response rating, Soybean (soybean; [3]): 0
Plant response rating, Soybean (soybean; [4]): 0
Soybean plant response rating (soybean; [5]): 0
Soybean plant response rating (soybean; [6]): 0
Plant response rating, B. signalgrass (surinam grass; [7]): 0
Plant response rating, B. signalgrass (surinam grass; [1]): 2
B. signalgrass plant response rating (surinam grass; [2]): 6
Plant response rating, B. signalgrass (surinam grass; [3]): 2
Plant response rating, B. signalgrass (surinam grass; [4]): 3
B. signalgrass plant response rating (surinam grass; [15]): 6
B. signalgrass plant response rating (surinam grass; Preemergence, Rate 500 g/ha, scale of 0 to 10 where 0 is no effect and 10 is complete control): 6
B. signalgrass plant response rating (surinam grass; [8]): 0
Plant response rating, Barnyardgrass (bamyardgrass; [11]): 0
Barnyardgrass plant response rating (bamyardgrass; [12]): 0
Barnyardgrass plant response rating (bamyardgrass; [13]): 0
Plant response rating, Barnyardgrass (bamyardgrass; [14]): 0
Wild oats plant response rating (wild oat; [2]): 3
Plant response rating, Wild oats (wild oat; [3]): 0
Plant response rating, Wild oats (wild oat; [4]): 3
Wild oats plant response rating (wild oat; [5]): 6
Wild oats plant response rating (wild oat; [6]): 6
Plant response rating, Morningglory (morningglory; [1]): 6
Morningglory plant response rating (morningglory; [2]): 7
Plant response rating, Morningglory (morningglory; [3]): 0
Plant response rating, Morningglory (morningglory; [4]): 0
Morningglory plant response rating (morningglory; [5]): 0
Morningglory plant response rating (morningglory; [6]): 0
Plant response rating, Rape (rape; [1]): 0
Rape plant response rating (rape; [2]): 1
Plant response rating, Rape (rape; [3]): 2
Plant response rating, Rape (rape; [4]): 6
Rape plant response rating (rape; [5]): 10
Rape plant response rating (rape; [6]): 10

Source: US6737383B1, “Herbicidal oxadiazolidines” (priority 1999, dated 2004)
